# Assays:
# [1] = test system: P. falciparum K1 strain (Thailand resistant to chloroquine); assay: semiautomated microdilution assay, [3H]-hypoxanthine incorporation, K1 strain; assay type: cell-based, Plasmodium falciparum; conditions: K1 strain, 72 h incubation
# Method: (§1) Various OZ compounds were tested by the semiautomated microdilution assay against intraerythrocytic forms of Plasmodium falciparum derived from asynchronous stock cultures.
# (§2) Fifty percent inhibitory concentration (IC50) were estimated by Logit regression analysis.
# [2] = test system: P. falciparum NF54 strain (sensitive to standard antimalarials); assay: semiautomated microdilution assay, [3H]-hypoxanthine incorporation, NF54 strain; assay type: cell-based, Plasmodium falciparum; conditions: NF54 strain, 72 h incubation
# Method: as §1, §2
# [3] = test system: ANKA strain of P. berghei; assay: single dose STI in vivo screen in infected mice; design: species or system Plasmodium berghei; conditions: for Activity (%) po / Activity (%) sc / Activity (%) SSVpo / Activity (%) 3 mg/kg SSV po / Activity (%) 10 mg/kg SSV po: percent reduction in parasitemia day 3 post-infection; for Activity (%) po / Survival (days) po: single 10 mg/kg po in 3% ethanol and 7% Tween 80; for Activity (%) po / Activity (%) sc / Activity (%) SSVpo: mice; for Activity (%) sc / Survival (days) sc: single 10 mg/kg sc in 3% ethanol and 7% Tween 80; for Activity (%) SSVpo: single po dose in standard suspending vehicle (SSV); for Survival (days) po / Survival (days) sc / Survival (days) SSVpo: untreated control 5.6 ± 0.3; for Survival (days) SSVpo: single po dose in SSV; for Activity (%) 10 mg/kg SSV po / Survival (days) 10 mg/kg SSV po: single 10 mg/kg po in SSV
# Method: In the single dose STI in vivo screen, Moro SPF or NMRI mice infected with the ANKA strain of P. berghei (groups of 3-5 mice) were treated on day one post-infection with trioxolanes dissolved or suspended in 3% ethanol and 7% Tween 80. […] SSV consists of 0.5% w/v CMC, 0.5% v/v benzyl alcohol, 0.4% v/v Tween 80, and 0.9% w/v sodium chloride in water. Antimalarial activity was measured by percent reduction in parasitemia on day three post-infection and survival times compared to an untreated control group. Survival to day 30 post-infection is considered to be a cure. […] Other factors influencing antimalarial activity include the stability of carbon radicals formed by β-scission subsequent to the initial electron transfer to the peroxide bond and the influence of steric effects remote from the peroxide bond on the interactions between carbon radicals and potential drug targets.
SMILES,IC50 (ng/ml) K1 [1],IC50 (ng/ml) NF54 [2],Activity (%) po [3],Activity (%) sc [3],Activity (%) SSVpo [3],Survival (days) po [3] [days],Survival (days) sc [3] [days],Survival (days) SSVpo [3] [days],Activity (%) 3 mg/kg SSV po ([3]; single 3 mg/kg po in SSV) [%],Activity (%) 10 mg/kg SSV po [3],Survival (days) 10 mg/kg SSV po [3],Survival (days) 3 mg/kg SSV po ([3]; single 3 mg/kg po in SSV) [days]
COCC(=O)N[C@H]1CC[C@]2(CC1)OOC1(O2)C2CC3CC(C2)CC1C3 (stereo partly shown) [OZ186],>10/>10 ng/ml,>10/>10 ng/ml,87%,67%,96%,8.0,8.0,9.0,,,,
CC(C)(C)COC(=O)C1CCC2(CC1)OOC1(O2)C2CC3CC(C2)CC1C3 (stereo not shown) [OZ64],1.5 ng/mL,1.3 ng/mL,95%,98%,,7.3,8.0,,,,,
O=S(=O)(c1ccc(F)cc1)N1CCC2(CC1)OOC1(O2)C2CC3CC(C2)CC1C3 (stereo not shown) [OZ86],0.80 ng/mL,2.0 ng/mL,77%,99.9%,,6.7,11.3,,,,,
O=C(O)CCC(=O)NC[C@H]1CC[C@]2(CC1)OO[C@]1(O2)C2CC3CC(C2)CC1C3 [OZ300],71 ng/mL,97 ng/mL,,,,,,,0,6%,6.8 days,
CCOC(=O)CCC[C@H]1CC[C@]2(CC1)OOC1(O2)C2CC3CC(C2)CC1C3 (stereo partly shown) [OZ260],5.6 ng/mL,4.3 ng/mL,72%,81%,51%,6.7,7.7,7.0,,,,
NC(=O)CCNC[C@H]1CC[C@]2(CC1)OO[C@]1(O2)C2CC3CC(C2)CC1C3 [OZ319],0.41 ng/mL,0.91 ng/mL,,,,,,,99.14,99.92%,10.6 days,10.8
CC(C)(N)CNC[C@H]1CC[C@]2(CC1)OOC1(O2)C2CC3CC(C2)CC1C3 (stereo partly shown) [OZ287],0.49 ng/mL,0.83 ng/mL,,,,,,,68,95%,8.3 days,
c1ccc(C2(c3ccccc3)OOC3(O2)C2CC4CC(C2)CC3C4)cc1 (stereo not shown) [OZ42],2.3 ng/mL,2.6 ng/mL,68%,92%,,6.0,7.0,,,,,
FC1(c2ccccc2)CCC2(CC1)OOC1(O2)C2CC3CC(C2)CC1C3 (stereo not shown) [OZ274],5.1 ng/mL,5.7 ng/mL,,,,,,,,11/ND %,7.0/ND days,
N=C(N)NC[C@H]1CC[C@]2(CC1)OOC1(O2)C2CC3CC(C2)CC1C3 (stereo partly shown) [OZ237],5.7 ng/mL,7.1 ng/mL,5%,52%,9%,6.0,6.7,6.0,,,,
O=C(NC[C@H]1CC[C@]2(CC1)OOC1(O2)C2CC3CC(C2)CC1C3)c1ccccc1C(=O)NC[C@H]1CC[C@]2(CC1)OOC1(O2)C2CC3CC(C2)CC1C3 (stereo partly shown) [OZ230],3.9 ng/mL,3.6 ng/mL,0/0/0%,0/0/0%,0/0/0%,5.3,5.7,5.7,,,,
COC1(c2ccc(F)cc2)CCC2(CC1)OOC1(O2)C2CC3CC(C2)CC1C3 (stereo not shown) [OZ77],1.4 ng/mL,2.2 ng/mL,99.9%,98%,74%,9.0,8.3,6.0,,,,
c1cc(CN2CCC3(CC2)OOC2(O3)C3CC4CC(C3)CC2C4)ccn1 (stereo not shown) [OZ216],0.40 ng/mL,0.67 ng/mL,62%,99.02%,69%,6.3,11.0,7.7,,,,
Cc1ccc(S(=O)(=O)N2CCC3(CC2)OOC2(O3)C3CC4CC(C3)CC2C4)cc1 (stereo not shown) [OZ51],2.5/2.5 ng/ml,2.5/2.5 ng/ml,89%,100%,,7.0,14,,,,,
C1CC1CNC1CCC2(CC1)OOC1(O2)C2CC3CC(C2)CC1C3 (stereo not shown) [OZ184],1.0 ng/mL,1.4 ng/mL,54%,97%,59%,6.7,8.7,7.0,,,,
O=C1c2ccccc2S(=O)(=O)N1C[C@H]1CC[C@]2(CC1)OOC1(O2)C2CC3CC(C2)CC1C3 (stereo partly shown) [OZ212],2.7 ng/mL,2.9 ng/mL,66%,59%,25%,6.7,8.0,6.7,,,,
O=[N+]([O-])c1cc(C2(c3ccc(Cl)c([N+](=O)[O-])c3)OOC3(O2)C2CC4CC(C2)CC3C4)ccc1Cl (stereo not shown) [OZ96],8.4 ng/mL,> 10 ng/mL,12%,19%,14%,5.7,5.3,5.7,,,,
COC(=O)C1(c2ccccc2)CCC2(CC1)OOC1(O2)C2CC3CC(C2)CC1C3 (stereo not shown) [OZ98],2.3 ng/mL,0.9 ng/mL,72%,77%,11%,6.3,7.3,5.3,,,,
O=C(OC[C@H]1CC[C@]2(CC1)OOC1(O2)C2CC3CC(C2)CC1C3)n1ccnc1 (stereo partly shown) [OZ141],1.7 ng/mL,1.9 ng/mL,98%,99.89%,97%,8.0,8.7,8.0,,,,
NC1(C(=O)NC[C@H]2CC[C@]3(CC2)OO[C@]2(O3)C3CC4CC(C3)CC2C4)CCCCC1 [OZ333],0.24 ng/mL,0.44 ng/mL,,,,,,,96,99.86%,9.2 days,
COCC(=O)N(Cc1ccccc1)C1CCC2(CC1)OOC1(O2)C2CC3CC(C2)CC1C3 (stereo not shown) [OZ173],58 ng/mL,32 ng/mL,15%,80%,0%,7.0,9.7,6.7,,,,

# From patent US6906205B2, “Spiro and dispiro 1,2,4-trioxolane antimalarials” (Medicines for Malaria Venture MMV, priority 2002, dated 2005)
